Measurements reported in patent US9557338B2 (SIGNAL PHARMACEUTICALS, LLC, priority 2012, dated 2017).
Read-outs that look alike come from different tables or passages of the source.

Legend:
Assay type in all cases: cell-based
p70S6K = assay: Luminex multiplex assay, p70S6K phosphorylation in cell lysates
Phospho-GSK3β(S9) = assay: Luminex multiplex assay, Phospho-GSK3β(S9)
How it was run: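 Cells (PC3; HCT-116, MDA-MB-231 and HT29 with 500 ng/mL recombinant human IGF-I for the final 10 min) treated with compound or rapamycin over a concentration range for 1 h at 37° C, 5% CO2. Lysates read by bead-based Luminex sandwich immunoassay, 3 h at room temperature, RPE anti-rabbit detection, quantified against phosphoprotein standard curves.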

Akt(S473) = assay: Inhibition of Akt(S473) phosphorylation in cell lines; conditions: read-out: p-Akt (S473)
Akt(T308) = assay: Inhibition of Akt(T308) phosphorylation in cell lines; conditions: read-out: p-Akt(T308)
A549 = assay: Growth inhibition (cell proliferation assay), A549; conditions: read-out: Compound 1 Growth Inhibition IC50
HCT116 = assay: Growth inhibition (cell proliferation assay), HCT116; conditions: read-out: Compound 1 Growth Inhibition IC50
U-87 MG = assay: Growth inhibition (cell proliferation assay), U-87 MG; conditions: read-out: Compound 1 Growth Inhibition IC50
MDA-MB-231 = assay: Growth inhibition (cell proliferation assay), MDA-MB-231; conditions: read-out: Compound 1 Growth Inhibition IC50
NCI-H23 = assay: Growth inhibition (cell proliferation assay), NCI-H23; conditions: read-out: Compound 1 Growth Inhibition IC50
HT-29 = assay: Growth inhibition (cell proliferation assay), HT-29; conditions: read-out: Compound 1 Growth Inhibition IC50
mTORC1 = target: T1, mTORC1 (Homo sapiens, UniProt P42345); assay: Inhibition of mTORC1 measured by phosphorylation of pathway markers (FIG. 1); conditions: phosphorylation of pathway markers Akt, PRAS40, GSK-3β, p70S6, S6, 4-EBP1
T1 construct: endogenous in cells; host or cells: PC3, A549, HCT116, U-87 MG, MDA-MB-231, NCI-H23, HT-29
From the text: (§1) The activity of the TORC1 complex can be followed from the phosphorylation status of 4E-BP1(T46), a direct substrate of mTOR kinase and S6RP(S235/S236), a downstream substrate from mTOR. The activity of the TORC2 complex can be followed directly from the phosphorylation status of Akt(S473) and indirectly from the phosphorylation status of AKT substrates, GSK3β(S9) and PRAS40(T246). […] Full activation of Akt requires an additional phosphorylation on T308 that is done by PDK1 and is speculated to be co-dependent with the TORC2 phosphorylation of the Akt(S473).

mTORC2 = target: T2, mTORC2 (Homo sapiens, UniProt P42345); assay: Inhibition of mTORC2 measured by phosphorylation of pathway markers (FIG. 1); conditions: phosphorylation of pathway markers Akt, PRAS40, GSK-3β, p70S6, S6, 4-EBP1
T2 construct: endogenous in cells; host or cells: PC3, A549, HCT116, U-87 MG, MDA-MB-231, NCI-H23, HT-29
From the text: as §1

Structure (SMILES): CO[C@H]1CC[C@H](N2C(=O)CNc3ncc(-c4ccc(C(C)(C)O)nc4)nc32)CC1 [Compound 1, 7-(6-(2-hydroxypropan-2-yl)pyridin-3-yl)-1-((1r,4r)-4-methoxycyclohexyl)-3,4-dihydropyrazino-[2,3-b]pyrazin-2(1H)-one]
- IC50 (p70S6K; HCT116 cell line, IGF, read-out: Luminex p70S6K (IGF)): 191 nM
- IC50 (p70S6K; U87MG cell line, read-out: Luminex p70S6K): 103 nM
- IC50 (Phospho-GSK3β(S9); HCT116, IGF-I stimulation, read-out: p-GSK3β (S9)): 220 nM
- IC50 (Phospho-GSK3β(S9); HCT116 cell line, IGF, read-out: Luminex GSK-3β (IGF)): 359 nM
- IC50 (Phospho-GSK3β(S9); HT-29, IGF-I stimulation, read-out: p-GSK3β (S9)): > 2000 nM
- IC50 (Phospho-GSK3β(S9); NCI-H23, read-out: p-GSK3β (S9)): > 2000 nM
- IC50 (Phospho-GSK3β(S9); PC3, read-out: p-GSK3β (S9)): 230 nM
- IC50 (Phospho-GSK3β(S9); U87MG cell line, read-out: Luminex GSK-3β): 281 nM
- IC50 (Phospho-GSK3β(S9); U-87 MG, read-out: p-GSK3β (S9)): 280 nM
- IC50 (Akt(S473); A549): 120 nM
- IC50 (Akt(S473); HCT116): 100 nM
- IC50 (Akt(S473); HT-29): 250 nM
- IC50 (Akt(S473); MDA-MB-231): 40 nM
- IC50 (Akt(S473); NCI-H23): 100 nM
- IC50 (Akt(S473); PC3): 10 nM
- IC50 (Akt(S473); U-87 MG): 150 nM
- IC50 (Akt(T308); A549): 640 nM
- IC50 (Akt(T308); HCT116): 1950 nM
- IC50 (Akt(T308); HT-29): 240 nM
- IC50 (Akt(T308); PC3): 130 nM
- IC50 (Akt(T308); U-87 MG): 260 nM
- IC50 (A549): 320 nM
- IC50 (HCT116): 370 nM
- IC50 (U-87 MG): 790 nM
- IC50 (MDA-MB-231): 1770 nM
- IC50 (NCI-H23): 3710 nM
- IC50 (HT-29): > 20000 nM
- inhibition of mTORC1 (mTORC1): inhibition
- inhibition of mTORC2 (mTORC2): inhibition
